Test results published in patent publication US20220354863A1, “METHODS FOR THE PROPHYLACTIC TREATMENT OF CANCER IN PATIENTS SUFFERING FROM PANCREATITIS” (INSERM (INSTITUT NATIONAL DE LA SANTÈ ET DE LA RECHERCH …, priority 2019, published 2022).

Legend:
[1] = test system: caerulein-treated KC mice; test: Caerulein-induced pancreatic injury in oncogenic Kras (KC) mice; type: in vivo; details: KrasG12D background, 10 mg/kg by gavage
Source text: The LSL-Kras^G12D (from D Tuveson, Mouse Models of Human Cancers Consortium repository (NCI-Frederick, USA), Pdx1-cre (from DA Melton, Harvard University, Cambridge, Mass., USA), p110α^lox (from B. Vanhaesebroeck, UCL, London), strains were interbred on mixed background (CD1/C57B16) to obtain compound mutant Pdx1-Cre;LSL-Kras^G12D (named KC), pdx1-Cre;p110α^lox/lox (Pdx1-Cre;p110α^lox/lox were named α^inC; pdx1-Cre;LSL-Kras^G12D;p110α^lox/lox were named Kα^inC). Littermates not expressing Cre as well as Pdx1-Cre and p110α^lox/lox mice of the same age were used as control. All procedures and animal housing are conformed to the regulatory standards and were approved by the Ethical committee according to European legislation translated to French Law as Décret 2013-118 1 Feb. 2013 (APAFIS 3601-2015121622062840). Genotyping was performed as described: the genetically modified allele is called p110α^lox or p110α^ΔDFG (here named Rec) after Cre recombination. DFG is a conserved motif in the activation loop of the p110α kinase domain critical for its catalytic activity. The gene targeting strategy used is different from a traditional conditional knock-out strategy. […] Primers corresponds to post-cre primers used to verify the presence of recombined allele ΔDFG: ma9: -[…]; ma5: […]; annealing temperature: 65° C.; recombined ΔDFG-544 bp, wild type (+) or unrecombined lox- >10 kbp amplicon. Genotyping of tail or pancreas samples was performed after DNA extraction with Sigma kit (XNAT-100RXN).
Animals were euthanized 1, 3, 7 or 17 days later, and recombination verified before analysis as described in [44, 45].
Immunostainings were conducted using standard methods on formalin-fixed, paraffin-embedded tissues, including both mice and human pancreas.

[2] = biological target: p110β (Homo sapiens, UniProt P42338); details: read-out: in vitro IC50 β; cited from earlier work
Chain of p110β (P42338 whole entry): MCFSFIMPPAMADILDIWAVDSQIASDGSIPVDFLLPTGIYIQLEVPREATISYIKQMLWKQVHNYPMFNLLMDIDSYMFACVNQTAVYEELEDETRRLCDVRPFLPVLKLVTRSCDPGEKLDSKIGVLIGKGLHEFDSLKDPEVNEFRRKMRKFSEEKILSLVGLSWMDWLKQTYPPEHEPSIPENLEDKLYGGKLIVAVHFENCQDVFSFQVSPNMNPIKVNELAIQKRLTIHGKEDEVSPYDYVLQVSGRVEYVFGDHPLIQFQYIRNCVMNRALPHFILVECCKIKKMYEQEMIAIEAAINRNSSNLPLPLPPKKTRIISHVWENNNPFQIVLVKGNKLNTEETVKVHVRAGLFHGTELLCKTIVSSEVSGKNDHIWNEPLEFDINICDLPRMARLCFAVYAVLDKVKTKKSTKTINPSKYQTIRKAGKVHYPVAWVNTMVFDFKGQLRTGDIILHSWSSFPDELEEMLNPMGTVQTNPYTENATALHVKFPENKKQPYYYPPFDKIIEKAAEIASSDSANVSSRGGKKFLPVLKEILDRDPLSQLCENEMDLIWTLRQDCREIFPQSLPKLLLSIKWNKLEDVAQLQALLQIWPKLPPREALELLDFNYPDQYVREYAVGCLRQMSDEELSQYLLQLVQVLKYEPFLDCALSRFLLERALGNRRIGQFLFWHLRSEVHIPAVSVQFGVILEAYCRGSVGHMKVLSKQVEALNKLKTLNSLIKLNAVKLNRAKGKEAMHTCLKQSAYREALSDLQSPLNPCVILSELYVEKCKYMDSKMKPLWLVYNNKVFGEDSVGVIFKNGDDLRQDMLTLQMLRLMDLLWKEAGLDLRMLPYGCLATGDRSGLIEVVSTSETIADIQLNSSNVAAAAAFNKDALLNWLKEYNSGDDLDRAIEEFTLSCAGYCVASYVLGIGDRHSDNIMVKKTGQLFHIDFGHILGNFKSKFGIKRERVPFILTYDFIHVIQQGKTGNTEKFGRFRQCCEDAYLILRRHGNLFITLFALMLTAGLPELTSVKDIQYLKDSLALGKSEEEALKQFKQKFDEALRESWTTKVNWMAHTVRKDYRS
Chain of p110β (P27986 whole entry partner): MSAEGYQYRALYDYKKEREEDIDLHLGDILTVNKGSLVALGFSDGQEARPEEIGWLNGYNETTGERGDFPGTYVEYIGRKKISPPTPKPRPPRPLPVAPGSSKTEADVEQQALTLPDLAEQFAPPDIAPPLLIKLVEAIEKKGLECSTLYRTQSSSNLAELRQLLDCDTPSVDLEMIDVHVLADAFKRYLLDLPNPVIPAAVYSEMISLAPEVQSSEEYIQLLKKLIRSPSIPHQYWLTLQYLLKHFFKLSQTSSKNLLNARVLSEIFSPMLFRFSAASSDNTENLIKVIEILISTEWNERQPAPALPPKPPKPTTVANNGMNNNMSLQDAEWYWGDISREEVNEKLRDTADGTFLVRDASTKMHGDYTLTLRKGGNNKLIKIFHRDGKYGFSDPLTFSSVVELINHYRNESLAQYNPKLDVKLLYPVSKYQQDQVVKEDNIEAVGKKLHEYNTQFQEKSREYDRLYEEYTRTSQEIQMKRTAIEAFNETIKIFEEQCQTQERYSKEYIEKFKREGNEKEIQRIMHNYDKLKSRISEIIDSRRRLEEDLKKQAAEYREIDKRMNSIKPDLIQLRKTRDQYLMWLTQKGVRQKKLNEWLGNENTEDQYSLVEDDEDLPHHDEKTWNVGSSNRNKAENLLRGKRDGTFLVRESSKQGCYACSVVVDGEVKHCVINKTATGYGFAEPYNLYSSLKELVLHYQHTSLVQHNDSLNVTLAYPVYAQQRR

[3] = biological target: vps34 (Homo sapiens, UniProt Q8NEB9); details: read-out: in vitro IC50 vps34; cited from earlier work
Chain of vps34 (Q8NEB9 whole entry, species assumed): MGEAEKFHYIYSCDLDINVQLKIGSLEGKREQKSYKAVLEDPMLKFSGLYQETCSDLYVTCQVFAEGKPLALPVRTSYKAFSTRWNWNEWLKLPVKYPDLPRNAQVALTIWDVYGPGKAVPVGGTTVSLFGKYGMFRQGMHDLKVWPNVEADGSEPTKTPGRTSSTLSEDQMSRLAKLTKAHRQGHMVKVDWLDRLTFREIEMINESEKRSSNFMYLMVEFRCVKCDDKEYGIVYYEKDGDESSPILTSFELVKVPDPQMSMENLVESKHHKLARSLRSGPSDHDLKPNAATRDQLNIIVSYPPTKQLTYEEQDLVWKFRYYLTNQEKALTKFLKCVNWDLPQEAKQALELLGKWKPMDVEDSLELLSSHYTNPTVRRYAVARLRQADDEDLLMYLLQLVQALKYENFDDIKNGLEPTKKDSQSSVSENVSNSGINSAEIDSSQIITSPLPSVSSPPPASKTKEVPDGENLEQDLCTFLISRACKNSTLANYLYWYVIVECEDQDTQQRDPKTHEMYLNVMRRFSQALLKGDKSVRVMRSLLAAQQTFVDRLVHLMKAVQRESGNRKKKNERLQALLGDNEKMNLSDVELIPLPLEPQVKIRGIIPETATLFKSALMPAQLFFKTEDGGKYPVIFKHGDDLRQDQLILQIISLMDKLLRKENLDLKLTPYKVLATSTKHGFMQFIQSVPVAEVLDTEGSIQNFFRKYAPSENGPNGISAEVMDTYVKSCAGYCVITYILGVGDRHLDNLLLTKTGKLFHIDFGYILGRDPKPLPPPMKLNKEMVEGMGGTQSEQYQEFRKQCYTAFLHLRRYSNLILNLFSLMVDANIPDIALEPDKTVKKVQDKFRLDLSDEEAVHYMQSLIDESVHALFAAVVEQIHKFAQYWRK

[4] = biological target: mTOR (Homo sapiens, UniProt P42345); details: cited from earlier work
[5] = biological target: p110γ (Homo sapiens, UniProt P48736); details: read-out: in vitro IC50 γ; cited from earlier work
Chain of p110γ (P48736 whole entry): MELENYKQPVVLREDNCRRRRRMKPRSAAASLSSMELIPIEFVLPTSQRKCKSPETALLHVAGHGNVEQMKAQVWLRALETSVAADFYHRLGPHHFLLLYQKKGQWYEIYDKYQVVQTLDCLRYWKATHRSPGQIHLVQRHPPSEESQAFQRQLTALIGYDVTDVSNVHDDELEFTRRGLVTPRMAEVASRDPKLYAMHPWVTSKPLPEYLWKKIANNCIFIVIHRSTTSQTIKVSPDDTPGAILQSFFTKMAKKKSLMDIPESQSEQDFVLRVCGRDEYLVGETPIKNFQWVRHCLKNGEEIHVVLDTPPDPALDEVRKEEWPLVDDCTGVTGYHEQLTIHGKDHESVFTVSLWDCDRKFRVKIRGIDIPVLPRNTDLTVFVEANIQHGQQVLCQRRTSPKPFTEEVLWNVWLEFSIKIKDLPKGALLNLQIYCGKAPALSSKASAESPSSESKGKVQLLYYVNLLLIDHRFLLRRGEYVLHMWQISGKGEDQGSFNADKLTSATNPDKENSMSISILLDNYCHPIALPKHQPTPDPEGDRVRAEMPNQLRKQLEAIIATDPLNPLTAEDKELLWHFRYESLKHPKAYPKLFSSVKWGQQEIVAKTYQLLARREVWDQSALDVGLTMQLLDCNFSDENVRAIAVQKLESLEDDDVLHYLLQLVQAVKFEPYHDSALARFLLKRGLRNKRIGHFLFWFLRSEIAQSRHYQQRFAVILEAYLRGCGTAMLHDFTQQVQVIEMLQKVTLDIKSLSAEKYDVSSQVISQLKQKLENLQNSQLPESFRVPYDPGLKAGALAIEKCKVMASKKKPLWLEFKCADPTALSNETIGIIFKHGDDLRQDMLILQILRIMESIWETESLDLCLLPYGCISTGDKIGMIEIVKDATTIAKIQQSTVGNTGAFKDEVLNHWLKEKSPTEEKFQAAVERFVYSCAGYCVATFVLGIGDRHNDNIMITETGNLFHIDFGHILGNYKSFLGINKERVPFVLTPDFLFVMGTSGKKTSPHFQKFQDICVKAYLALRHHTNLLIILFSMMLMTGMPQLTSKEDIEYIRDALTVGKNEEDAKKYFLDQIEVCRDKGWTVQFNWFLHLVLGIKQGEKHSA

[6] = biological target: p110δ (Homo sapiens, UniProt O00329); details: read-out: in vitro IC50 δ; cited from earlier work
Chain of p110δ (O00329 whole entry): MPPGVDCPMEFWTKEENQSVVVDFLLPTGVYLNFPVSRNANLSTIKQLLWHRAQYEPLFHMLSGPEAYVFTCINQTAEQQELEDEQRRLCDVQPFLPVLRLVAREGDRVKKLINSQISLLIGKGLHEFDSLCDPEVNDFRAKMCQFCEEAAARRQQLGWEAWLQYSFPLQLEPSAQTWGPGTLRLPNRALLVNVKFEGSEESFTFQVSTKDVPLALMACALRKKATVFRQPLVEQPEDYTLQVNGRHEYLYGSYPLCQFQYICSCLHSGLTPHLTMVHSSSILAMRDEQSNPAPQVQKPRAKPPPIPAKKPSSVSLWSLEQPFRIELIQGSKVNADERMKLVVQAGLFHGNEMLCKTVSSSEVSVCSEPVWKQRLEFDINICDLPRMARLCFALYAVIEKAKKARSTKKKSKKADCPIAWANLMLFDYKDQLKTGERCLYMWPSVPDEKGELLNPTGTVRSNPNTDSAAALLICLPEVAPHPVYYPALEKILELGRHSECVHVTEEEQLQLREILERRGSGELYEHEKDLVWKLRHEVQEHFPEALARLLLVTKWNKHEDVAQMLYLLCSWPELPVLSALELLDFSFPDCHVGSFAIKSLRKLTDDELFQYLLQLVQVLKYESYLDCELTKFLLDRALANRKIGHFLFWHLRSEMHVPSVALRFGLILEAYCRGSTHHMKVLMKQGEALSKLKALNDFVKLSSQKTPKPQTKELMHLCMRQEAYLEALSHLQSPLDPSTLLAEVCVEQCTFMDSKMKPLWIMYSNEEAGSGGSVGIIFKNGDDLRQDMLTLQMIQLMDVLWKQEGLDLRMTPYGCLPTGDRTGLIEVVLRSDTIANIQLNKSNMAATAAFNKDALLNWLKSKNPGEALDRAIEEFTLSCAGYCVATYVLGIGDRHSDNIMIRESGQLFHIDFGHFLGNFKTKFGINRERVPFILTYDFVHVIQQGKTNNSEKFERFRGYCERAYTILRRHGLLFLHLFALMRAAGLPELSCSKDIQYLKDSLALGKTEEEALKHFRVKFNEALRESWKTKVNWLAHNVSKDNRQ
Chain of p110δ (P27986 whole entry partner): as the sequence (P27986 whole entry partner) above

[7] = biological target: C2α (Homo sapiens, UniProt O00443); details: read-out: in vitro IC50 C2α; cited from earlier work
[8] = biological target: C2β (Homo sapiens, UniProt O00750); details: read-out: in vitro IC50 C2β; cited from earlier work

CC(C)n1ncnc1-c1cn2c(n1)-c1ccc(O[C@@H](C)C(N)=O)cc1OCC2 [GDC0326, (S)-2-((2-(1-Isopropyl-1H-1,2,4-triazol-5-yl)-5,6-dihydrobenzo[f]imidazo [1,2-d][1,4]oxazepin-9-yl)oxy)propanamide]
activation of the stromal compartment (CD18 immune cell staining, picrosirius red collagen deposit staining) [1]: reversed the activation of the stromal compartment
lesion area ([1]; day 17, compared to caerulein-treated KC mice that received vehicle): significant decrease of lesion area
p-Akt substrate staining ([1]; day 17, vs vehicle): absence of p-Akt Subsrate staining
IC50 [2]: 133 nM
IC50 [3]: 2840 nM
Ki [4]: 4300 nM
IC50 [5]: 51 nM
IC50 [6]: 20 nM
IC50 [7]: > 10000 nM
IC50 [8]: 261 nM
